Experimental data: patent US5656440A, “Nucleotide sequences coding for the bovine β3 -adrenergic receptor (ARβ3) and their applications” (Virbac, priority 1993, dated 1997)
Like-named read-outs stand apart in the source and are kept apart here.

Key:
[1] = test system: mouse ARβ3 receptor; settings: cited from earlier work; for Accumul. cAMP IA (intrinsic activity) / EC50: Mouse RAβ3-CHO; for Accumul. cAMP IA (intrinsic activity): ratio of effect of ligand at 10^-4 M to effect of isoproterenol at 10^-4 M, 100 µM; for EC50: read-out: Accumul. cAMP Kact (adenylate cyclase activation constant); for functional character (agonist/antagonist): mouse ARβ3
[2] = molecular target: human ARβ3 receptor; settings: Human RAβ3-CHO; read-out: Binding Ki; cited from earlier work
[3] = test system: β1 -, β2 - and β3 -AR; settings: β1, β2, β3 subtypes; cited from earlier work
[4] = test system: human ARβ3 receptor; settings: cited from earlier work; for Accumul. cAMP IA (intrinsic activity) / EC50: Human RAβ3-CHO; for Accumul. cAMP IA (intrinsic activity): ratio of effect of ligand at 10^-4 M to effect of isoproterenol at 10^-4 M, 100 µM; for EC50: read-out: Accumul. cAMP Kact (adenylate cyclase activation constant); for functional character (agonist/antagonist): human ARβ3
[5] = molecular target: T1, bovine ARβ3 receptor (Bos taurus, UniProt P46626); assay: adenylate cyclase activation (cAMP accumulation) in CHO cells, bovine receptor (clone 62-26); format: cell-based; set-up: Emax: dose or concentration left out as unconfirmed; settings: for Emax: CHO; for Emax / Emax at 100 µM: 0.5 h, read-out: Accumul. cAMP IA (intrinsic activity)
T1 construct: to liberate the 1598-base pair fragment containing the coding region of the bovine β3 gene; expressed in transfected cells
T1 sequence (P46626 whole entry, the tested form may be a part): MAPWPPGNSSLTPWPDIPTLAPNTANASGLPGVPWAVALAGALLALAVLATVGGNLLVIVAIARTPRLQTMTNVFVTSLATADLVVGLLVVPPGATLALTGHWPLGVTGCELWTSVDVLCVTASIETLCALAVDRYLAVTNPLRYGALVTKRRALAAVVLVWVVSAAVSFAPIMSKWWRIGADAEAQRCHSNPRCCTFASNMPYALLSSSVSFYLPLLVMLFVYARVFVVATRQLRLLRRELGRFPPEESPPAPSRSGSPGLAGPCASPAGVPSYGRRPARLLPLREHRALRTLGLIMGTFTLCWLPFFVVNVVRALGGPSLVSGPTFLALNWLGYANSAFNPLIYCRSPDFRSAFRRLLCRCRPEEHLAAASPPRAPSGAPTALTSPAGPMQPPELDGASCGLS
Protocol: Briefly, preconfluent cells in six-well plates (0.6×10^6 cells/well) are placed in contact or otherwise with increasing doses of ligands for 30 minutes at 37° C. Reaction is stopped by washing in PBS at 4° C. and adding 500 μl of 1N NaOH. After centrifugation and neutralization with 1N acetic acid, the cell lysates are recovered and the total amount of cAMP accumulated is determined using a commercial assay kit.

[6] = molecular target: mouse ARβ3 receptor; settings: Mouse RAβ3-CHO; read-out: Binding Ki; cited from earlier work
[7] = molecular target: T1, bovine ARβ3 receptor; assay: competitive binding of ligands against [^125 I]cyanopindolol on intact CHO cells, bovine receptor (clone 62-26)
Protocol: Reaction is stopped by dilution with ice-cold PBS, the cells are filtered off and the radioactivity is measured in a gamma counter. The results were analysed using Graph-Pad.COPYRGT. software.

[8] = test system: bovine ARβ3; assay: binding of [^125 I]cyanopindolol to transfected cells stably expressing ARβ3
From the text: Stable colonies are screened for their capacity to bind specifically to [^125 I]cyanopindolol and also for their capacity to stimulate adenylate cyclase in the presence of isoproterenol, in accordance with protocol described in TATE et al., Eur. J. Biochem., 191, 196, 357-361.

[9] = BovineRAβ3-CHO, ratio of effect of ligand at 10^-4 M to effect of isoproterenol at 10^-4 M
[10] = BovineRAβ3-CHO, 30 minutes at 37° C., read-out: Accumul. cAMP Kact (adenylate cyclase activation constant)
[11] = BovineRAβ3-CHO, 0.5 nM [^125 I]cyanopindolol, 30 minutes at 37° C., read-out: Binding Ki

Row | Compound | Accumul. cAMP IA (intrinsic activity) [1] | EC50 [1] | Ki [2] | described agonist/antagonist class [3] | Accumul. cAMP IA (intrinsic activity) [4] | EC50 [4] | EC50 [5] | Emax [5] | Ki [6] | Ki [7] | functional character (agonist/antagonist) [1] | functional character (agonist/antagonist) ([1]; listed as bupranolol) | functional character (agonist/antagonist) [4] | functional character (agonist/antagonist) ([4]; listed as bupranolol) | Emax at 100 µM [5, 9] | EC50 [5, 10] | functional character (agonist/antagonist) ([5]; bovine ARβ3) | Ki [7, 11] | Accumul. cAMP IA (intrinsic activity) ([5]; BovineRAβ3-CHO, ratio of effect of ligand at 10^-4 M to effect of isoproterenol at 10^-4 M, 30 min, 100 µM) | binding affinity compared to ARβ3 in man or in mouse [8]
1 | C[C@H](Cc1ccc(OCC(=O)O)cc1)NC[C@H](O)c1cccc(Cl)c1 (relative stereo) [BRL 37344] | 1.07 ± 0.08 | 0.4 ± 0.1 nM | 287 ± 92 nM | β1 -, β2 - and β3 -AR-receptor agonists | 1.11 ± 0.12 | 15 ± 3 nM | 0.3 nM | 84 ± 10% | 290 ± 136 nM | 2.13 ± 1.4 nM | – | – | – | – | – | – | – | – | – | –
2 | Cc1ccc(Cl)c(OCC(O)CNC(C)(C)C)c1 (single isomer, unassigned; (-)) [(-) bupranolol, bupranolol] | – | – | 50 ± 14 nM | antagonist of the three subtypes of receptor | – | – | – | – | 42 ± 19 nM | – | antagonist | potent antagonist | antagonist | potent antagonist | 34 ± 1% | 507 nM | partial agonist | 85 ± 40 nM | – | –
3 | CC(C)NCC(O)c1ccc(O)c(O)c1 (single isomer, unassigned; (-)) [(-) isproterenol, (-)-iso-proterenol] | – | – | 620 nM | β1 -, β2 - and β3 -AR-receptor agonists | – | – | 14 ± 2 nM | 90 ± 10% | – | 84 ± 81 nM | – | – | – | – | – | – | – | – | – | –
4 | CNC[C@H](O)c1ccc(O)c(O)c1 [(- ) epinephrine, (-)-epinephrine] | 0.91 ± 0.03 | 23 ± 0.3 nM | 20600 nM | β1 -, β2 - and β3 -AR-receptor agonists | 1.00 ± 0.04 | 49 ± 5 nM | – | 80 ± 30% | 4600 nM | – | – | – | – | – | – | 50.7 nM | – | 11100 nM | – | –
5 | CC(C)NC[C@H](O)COc1cccc2ccccc12 [(- ) propranolol, (-)-propranolol] | – | – | – | – | 0.51 ± 0.12 | – | – | – | – | – | antagonist | – | partial agonist | – | – | – | – | – | – | –
6 | NC[C@H](O)c1ccc(O)c(O)c1 [(-) norepinephrine, (-)-norepinephrine] | 1.06 ± 0.06 | 13 ± 4 nM | 475 ± 75 nM | β1 -, β2 - and β3 -AR-receptor agonists | 1.00 | 6.32 ± 0.7 nM | 54 ± 4.3 nM | 100 ± 50% | 1840 nM | 423 ± 255 nM | – | – | – | – | – | – | – | – | – | –
7 | CC(C)(Cc1c[nH]c2ccccc12)NCC(O)COc1ccccc1C#N (stereo not drawn) [Bucindolol, bucindolol] | 1.11 ± 0.06 | 40 ± 14 nM | 23 ± 10 nM | specific for the ARβ3 receptor (β1 -, β2 -AR antagonists) | 1.01 ± 0.10 | 7 ± 1.2 nM | – | – | 21 ± 5 nM | – | – | – | – | – | 99 ± 10% | 12.8 nM | – | 73 ± 42 nM | – | –
8 | CC(C)(C)NCC(O)COc1cccc2[nH]c(=O)[nH]c12 (stereo not drawn) [CGP 12177A] | – | – | 88 ± 22 nM | specific for the ARβ3 receptor (β1 -, β2 -AR antagonists) | 0.68 ± 0.02 | 139 ± 44 nM | – | – | 152 ± 19 nM | – | – | – | – | – | 93 ± 20% | 1.41 nM | – | 218 ± 161 nM | – | –
9 | O=C(O)COc1ccc(OCCNCC(O)COc2ccccc2)cc1 (stereo not drawn) [ICI 201651] | 1.02 ± 0.02 | 15 ± 1 nM | 85 ± 12 nM | specific for the ARβ3 receptor (β1 -, β2 -AR antagonists) | 1.14 ± 0.14 | 20 ± 9 nM | – | – | 239 ± 104 nM | – | – | – | – | – | – | 1.1 nM | – | 27.7 ± 24 nM | 0.85 ± 0.1 | –
10 | CC(C)(C)NCC(O)COc1cccc2[nH]c(C#N)c([125I])c12 (stereo not drawn) [[^125 I]cyanopindolol] | – | – | – | – | – | – | – | – | – | – | – | – | – | – | – | – | – | – | – | affinity equivalent to that of the corresponding ARβ3 in man or in mouse
